Our source for the EC50 values is patent US20250092014A1, “COMPOUNDS AND METHODS OF ACTIVATING LIPOPROTEIN LIPASE” (Metrea Biosciences, Inc., priority 2021, published 2025).

Where a name gives a salt, the structure may show the parent alone. Bounds are passed on as bounds.

This assay has as its target T1, LPL:sGPIHBP1 complex (Homo sapiens, UniProt P06858).
T1 sequence (P06858 28-475): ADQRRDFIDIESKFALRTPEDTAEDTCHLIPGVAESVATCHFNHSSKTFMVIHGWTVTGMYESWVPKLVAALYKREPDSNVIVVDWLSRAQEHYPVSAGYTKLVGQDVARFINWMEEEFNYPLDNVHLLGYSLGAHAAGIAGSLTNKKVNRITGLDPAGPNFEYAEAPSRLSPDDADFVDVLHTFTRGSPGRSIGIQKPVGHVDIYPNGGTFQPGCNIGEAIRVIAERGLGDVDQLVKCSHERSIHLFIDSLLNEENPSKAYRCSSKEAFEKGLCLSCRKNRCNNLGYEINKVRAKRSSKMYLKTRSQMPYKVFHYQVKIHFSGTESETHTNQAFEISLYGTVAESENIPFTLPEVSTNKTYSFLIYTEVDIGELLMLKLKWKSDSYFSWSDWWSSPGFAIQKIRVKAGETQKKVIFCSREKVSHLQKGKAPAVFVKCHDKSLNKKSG
T1 sequence (Q8IV16 21-151 partner limits assumed): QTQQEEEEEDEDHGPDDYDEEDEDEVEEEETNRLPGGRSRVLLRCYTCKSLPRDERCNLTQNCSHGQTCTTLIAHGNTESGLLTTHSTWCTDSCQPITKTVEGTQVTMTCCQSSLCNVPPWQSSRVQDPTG
The assay is described as follows: RB assay (LPL:sGPIHBP1 pre-incubated with ANGPTL4, RB substrate). Conditions: read-out: RB qAC50. The assay is classed as biochemical. As for the experimental part: The assay was performed in black 1536-well plates using purified proteins. To identify compounds that stimulate LPL activity either by directly activating LPL or by inhibiting the antagonist ANGPTL4, the LPL:sGPIHBP1 complex was pre-incubated with ANGPTL4 to decrease LPL activity by 80%. After a 60 min pre-incubation, the reaction was started by adding the RB substrate. 30 min after RB addition, the enzymatic reaction was stopped using SDS. Fluorescence intensity was measured 2 h after stopping the reaction.
20 or 40 nl of compound solution in 100% DMSO were placed in test plate. Then was added LPL:sGPIHBP1 to all wells (diluted in assay buffer to 5 nM; 2 μl/well). This was followed by an addition of ANGPTL4 to compounds and neutral controls (diluted in assay buffer to 20 nM; 1 μl/well). A buffer solution was added to the stimulator control (1 μl/well). The plates were then centrifuged and pre-incubated for 60 min at RT. The reaction was started by adding substrate to all wells (diluted in assay buffer to 40 μM, 1 μl/well). The plated were centrifuged (800 rpm for 1 min) and incubated 30 min at RT (=reaction time). The reaction was stopped by adding SDS to all wells (diluted in water to 2.5%, 2 μl/well); incubated 2 h at RT. The fluorescence intensity (ex 540 nm/em 590 nm) was measured on a Pherastar (BMG) using 5 flashes.
As to `O=C(O)Cc1cc(F)ccc1NC(=O)c1ccc(N2CCCCC2)c(NC(=O)c2nn(CCC(F)(F)F)c3ccccc23)c1` [Compound 121, 2-(5-fluoro-2-(4-(piperidin-1-yl)-3-(1-(3,3,3-trifluoropropyl)-1H-indazole-3-carboxamido)benzamido)phenyl)acetic acid], the EC50 stood at 4.2 µM.
The value for `C#CCn1nc(C(=O)Nc2cc(C(=O)Nc3ccc(F)cc3CC(=O)O)ccc2N2CCCCC2)c2ccccc21` [Compound 122, 2-(5-fluoro-2-(4-(piperidin-1-yl)-3-(1-(prop-2-yn-1-yl)-1H-indazole-3-carboxamido)benzamido)phenyl)acetic acid] was 3.8 µM; that for `CC#CCn1nc(C(=O)Nc2cc(C(=O)Nc3ccc(F)cc3CC(=O)O)ccc2N2CCCCC2)c2ccccc21` [Compound 123, 2-(2-(3-(1-(but-2-yn-1-yl)-1H-indazole-3-carboxamido)-4-(piperidin-1-yl)benzamido)-5-fluorophenyl)acetic acid] was 3.1 µM; that for `Cc1cc(Cn2nc(C(=O)Nc3cc(C(=O)Nc4ccc(F)cc4CC(=O)O)ccc3N3CCCCC3)c3ccccc32)no1` [Compound 124, 2-(5-fluoro-2-(3-(1-((5-methylisoxazol-3-yl)methyl)-1H-indazole-3-carboxamido)-4-(piperidin-1-yl)benzamido)phenyl)acetic acid] was 4.7 µM.
Take `N#CC1(Cn2nc(C(=O)Nc3cc(C(=O)Nc4ccc(F)cc4CC(=O)O)ccc3N3CCCCC3)c3ccccc32)CC1` [Compound 127, 2-(2-(3-(1-((1-cyanocyclopropyl)methyl)-1H-indazole-3-carboxamido)-4-(piperidin-1-yl)benzamido)-5-fluorophenyl)acetic acid]: the EC50 was 4.3 µM.
On to `O=C(O)Cc1cc(F)ccc1NC(=O)c1ccc(N2CCCCC2)c(NC(=O)c2cn(CC(F)(F)F)c3ccccc23)c1` [Compound 128, 2-(5-fluoro-2-(4-(piperidin-1-yl)-3-(1-(2,2,2-trifluoroethyl)-1H-indole-3-carboxamido)benzamido)phenyl)acetic acid], for which the EC50 was 0.66 µM.
On to `Cc1c(C(=O)Nc2cc(C(=O)Nc3ccc(F)cc3CC(=O)O)ccc2N2CCCCC2)c2ccccc2n1CC(F)(F)F` [Compound 130, 2-(5-fluoro-2-(3-(2-methyl-1-(2,2,2-trifluoroethyl)-1H-indole-3-carboxamido)-4-(piperidin-1-yl)benzamido)phenyl)acetic acid], for which the EC50 was above 25 µM.
`O=C(O)Cc1cc(F)ccc1NC(=O)c1ccc(N2CCCCC2)c(NC(=O)c2nn(CC3CCCOC3)c3ccccc23)c1` (stereo not drawn) [Compound 133, 2-(5-fluoro-2-(4-(piperidin-1-yl)-3-(1-((tetrahydro-2H-pyran-3-yl)methyl)-1H-indazole-3-carboxamido)benzamido)phenyl)acetic acid]: the EC50 turned out to be 4.2 µM.
Take `O=C(O)Cc1cc(F)ccc1NC(=O)c1ccc(N2CCCCC2)c(NC(=O)c2cc(-c3ccccc3)nn2CC(F)(F)F)c1` [Compound 134, 2-(5-fluoro-2-(3-(3-phenyl-1-(2,2,2-trifluoroethyl)-1H-pyrazole-5-carboxamido)-4-(piperidin-1-yl)benzamido)phenyl)acetic acid]: the EC50 was 4.4 µM.
The value for `O=C(O)Cc1cc(F)ccc1NC(=O)c1ccc(N2CCCCC2)c(NC(=O)c2c3ccccc3nn2CC(F)(F)F)c1` [Compound 135, 2-(5-fluoro-2-(4-(piperidin-1-yl)-3-(2-(2,2,2-trifluoroethyl)-2H-indazole-3-carboxamido)benzamido)phenyl)acetic acid hydrochloride] was 12 µM.
Take `O=C(O)Cc1cc(F)ccc1NC(=O)c1ccc(N2CCCCC2)c(NC(=O)c2nn(C[C@@H]3CCCO3)c3ccccc23)c1` [Compound 136, (S)-2-(5-fluoro-2-(4-(piperidin-1-yl)-3-(1-((tetrahydrofuran-2-yl)methyl)-1H-indazole-3-carboxamido)benzamido)phenyl)acetic acid]: the EC50 was above 25 µM.
With `O=C(O)Cc1cc(F)ccc1NC(=O)c1ccc(N2CCCCC2)c(NC(=O)c2nn(C[C@H]3CCCO3)c3ccccc23)c1` [Compound 137, (R)-2-(5-fluoro-2-(4-(piperidin-1-yl)-3-(1-((tetrahydrofuran-2-yl)methyl)-1H-indazole-3-carboxamido)benzamido)phenyl)acetic acid], the EC50 amounted to 3.8 µM.
On to `O=C(O)Cc1cc(F)ccc1NC(=O)c1ccc(N2CCCCC2)c(NC(=O)c2nn(CC(F)(F)F)c3ccc(F)cc23)c1` [Compound 138, 2-(5-fluoro-2-(3-(5-fluoro-1-(2,2,2-trifluoroethyl)-1H-indazole-3-carboxamido)-4-(piperidin-1-yl)benzamido)phenyl)acetic acid], for which the EC50 is 4.8 µM.
Regarding `Cc1cccc2c1c(C(=O)Nc1cc(C(=O)Nc3ccc(F)cc3CC(=O)O)ccc1N1CCCCC1)nn2CC(F)(F)F` [Compound 141, 2-(5-fluoro-2-(3-(4-methyl-1-(2,2,2-trifluoroethyl)-1H-indazole-3-carboxamido)-4-(piperidin-1-yl)benzamido)phenyl)acetic acid], the EC50 was above 25 µM.
Take `Cc1ccc2c(c1)c(C(=O)Nc1cc(C(=O)Nc3ccc(F)cc3CC(=O)O)ccc1N1CCCCC1)nn2CC(F)(F)F` [Compound 142, 2-(5-fluoro-2-(3-(5-methyl-1-(2,2,2-trifluoroethyl)-1H-indazole-3-carboxamido)-4-(piperidin-1-yl)benzamido)phenyl)acetic acid]: the EC50 is above 7.1 µM.
The value for `Cc1ccc2c(C(=O)Nc3cc(C(=O)Nc4ccc(F)cc4CC(=O)O)ccc3N3CCCCC3)nn(CC(F)(F)F)c2c1` [Compound 143, 2-(5-fluoro-2-(3-(6-methyl-1-(2,2,2-trifluoroethyl)-1H-indazole-3-carboxamido)-4-(piperidin-1-yl)benzamido)phenyl)acetic acid] was 5 µM.
To `Cc1cccc2c(C(=O)Nc3cc(C(=O)Nc4ccc(F)cc4CC(=O)O)ccc3N3CCCCC3)nn(CC(F)(F)F)c12` [Compound 144, 2-(5-fluoro-2-(3-(7-methyl-1-(2,2,2-trifluoroethyl)-1H-indazole-3-carboxamido)-4-(piperidin-1-yl)benzamido)phenyl)acetic acid] belongs 5.8 µM; to `O=C(O)Cc1cc(F)ccc1NC(=O)c1ccc(N2CCCCC2)c(NC(=O)c2nn(CC(F)(F)F)c3c2CCC3)c1` [Compound 145, 2-(5-fluoro-2-(4-(piperidin-1-yl)-3-(1-(2,2,2-trifluoroethyl)-1,4,5,6-tetrahydrocyclopenta[c]pyrazole-3-carboxamido)benzamido)phenyl)acetic acid], 15 µM.
`CC(n1nc(C(=O)Nc2cc(C(=O)Nc3ccc(F)cc3CC(=O)O)ccc2N2CCCCC2)c2ccccc21)C(F)(F)F` (stereo not drawn) [Compound 146, 2-(5-fluoro-2-(4-(piperidin-1-yl)-3-(1-(1,1,1-trifluoropropan-2-yl)-1H-indazole-3-carboxamido)benzamido)phenyl)acetic acid]: the EC50 is above 7.1 µM.
Take `CC(C1CCOCC1)n1nc(C(=O)Nc2cc(C(=O)Nc3ccc(F)cc3CC(=O)O)ccc2N2CCCCC2)c2ccccc21` (stereo not drawn) [Compound 148, 2-(5-fluoro-2-(4-(piperidin-1-yl)-3-(1-(1-(tetrahydro-2H-pyran-4-yl)ethyl)-1H-indazole-3-carboxamido)benzamido)phenyl)acetic acid]: the EC50 is above 25 µM.
Consider `O=C(O)Cc1cc(C(F)(F)F)ccc1NC(=O)c1ccc(N2CCCCC2)c(NC(=O)c2nn(CC(F)(F)F)c3ccccc23)c1` [Example 22], for which the EC50 was determined as 4.3 µM.
With `CCC(C(=O)O)c1cc(F)ccc1NC(=O)c1ccc(N2CCCCC2)c(NC(=O)c2nn(CC(F)(F)F)c3ccccc23)c1` (stereo not drawn) [Example 28], the EC50 was determined as 4.2 µM.
The value for `O=C(O)Cc1cc(F)ccc1NC(=O)c1ccc(N2CCC(F)(F)CC2)c(NC(=O)c2nn(CC(F)(F)F)c3ccccc23)c1` [Example 40] was 3.5 µM; that for `N#CC1CCN(c2ccc(C(=O)Nc3ccc(F)cc3CC(=O)O)cc2NC(=O)c2nn(CC(F)(F)F)c3ccccc23)CC1` [Example 48] was above 25 µM; that for `O=C(O)Cc1cc(F)ccc1NC(=O)c1ccc(N2CC3(CCC3)C2)c(NC(=O)c2nn(CC(F)(F)F)c3ccccc23)c1` [Example 49] was 20 µM.
Turning to `O=C(O)Cc1cc(F)ccc1NC(=O)c1ccc(N2CCCC2)c(NC(=O)c2nn(CC(F)(F)F)c3ccccc23)c1` [Example 50], the EC50 is 24 µM.
With `O=C(O)Cc1cc(F)ccc1NC(=O)c1ccc(N2CC3CC3C2)c(NC(=O)c2nn(CC(F)(F)F)c3ccccc23)c1` (stereo not drawn) [Example 52], the EC50 was found to be 5 µM.
